Entries after “also recorded” stand apart in the source; their conditions may differ. Like-named read-outs stand apart in the source and are kept apart here. Each block holds one compound with its values, some of them ahead of it.
Legend:
[1] = test system: ApoE null mice; experiment: HDL function after D-4F and/or statin in drinking water for 24 hours; assay type: in vivo
[2] = test system: mice fed an atherogenic diet; conditions: 20 μg daily; cited from earlier work
[3] = test system: ApoE null mice; experiment: Protection against LDL-induced monocyte chemotactic activity by HDL from apo E null mice given oral peptides; assay type: in vivo; conditions: for activity of murine HDL against LDL-induced monocyte chemotactic activity: drinking water, 24 hrs, murine HDL at 100 μg/ml
Protocol: After 24 hrs blood was collected, plasma fractionated by FPLC and fractions containing LDL (designated as mLDL for murine LDL) and fractions containing HDL (designated as mHDL) were separately pooled and HDL protective capacity against LDL oxidation as determined by LDL-induced monocyte chemotactic activity was determined. For the assay controls the culture wells received no lipoproteins (no additions), mLDL alone (at 200 μg cholesterol/ml), or mLDL+standard normal human HDL (designated as Cont. h HDL, at 350 μg HDL cholesterol/ml).
For testing the murine HDL, mLDL together with murine HDL (+F mHDL or +J mHDL) were added to artery wall cell cultures. […] The murine HDL was used at 100 μg cholesterol/ml.

[4] = mouse, in vivo, po
[5] = test system: LDL receptor null mice; experiment: HDL protective capacity in LDL receptor null mice given peptide in drinking water; assay type: in vivo; conditions: 0.25 or 0.5 mg per ml drinking water, 24 or 48 hrs; mouse HDL at 100 μg/ml
Protocol: D-4F designated as F, or the apoJ peptide made from D amino acids (D-J336, designated as J) was added to the drinking water of LDL receptor null mice (4 per group) at 0.25 or 0.5 mg per ml of drinking water. After 24- or 48-hrs blood was collected from the mice and their HDL was isolated and tested for its ability to protect against LDL-induced monocyte chemotactic activity. Assay controls included culture wells that received no lipoproteins (no addition), or control human LDL alone (designated as LDL, 200 μg cholesterol/ml), or control LDL+control human HDL (designated as +HDL, 350 μg HDL cholesterol). For testing the mouse HDL, the control LDL was added together with mouse HDL (+F HDL or +J HDL) to artery wall cell cultures. The mouse HDL was added at 100 μg cholesterol/ml respectively.

[6] = test system: ApoE null mice; experiment: Trabecular bone mineral density after D-4F in drinking water; assay type: in vivo; conditions: drinking water for 6 weeks
[7] = test system: Obese Zucker rats; experiment: Plasma glucose and lipid hydroperoxides in obese Zucker rats given D-4F; assay type: in vivo; conditions: 5.0 mg/kg/day intraperitoneal, 10 days, rats 26 weeks of age
Protocol: Obese Zucker rats 26 weeks of age were bled and then treated with daily intraperitoneal injections of D-4F (5.0 mg/kg/day). After 10 days the rats were bled again plasma glucose and lipid hydroperoxides (LOOH) were determined. *p=0.027; ** p=0.0017.

[8] = test system: ApoE null mice; experiment: HDL and pre-beta HDL inhibition of LDL-induced monocyte chemotaxis after feeding solution-phase synthesized D-4F; assay type: in vivo; conditions: 5 micrograms fed, bled twelve hours after feeding was started
Source text: ApoE null mice were fed 5 micrograms of the D-4F synthesized as described above (Frgmnt) or the mice were given the same amount of mouse chow without D-4F (Chow). Twelve hours after the feeding was started, the mice were bled and their plasma was fractionated on FPLC.

[9] = test system: ApoE null mice; experiment: HDL Inflammatory Index after D-4F or Reverse D-4F by stomach tube; assay type: in vivo; conditions: 0, 3, 6, 12 or 25 micrograms by stomach tube, blood 7 hours later
Protocol: Female apoE null mice were administered by stomach tube 0, 3, 6, 12, or 25 micrograms of D-4F or Reverse D-4F in 100 microliters of water. Blood was obtained 7 hours later and the plasma was fractionated by FPLC. A standard control human LDL was added to human artery wall cells at a concentration of 100 micrograms of LDL-cholesterol/mL (LDL). The resulting monocyte chemotactic activity was normalized to 1.0. The same LDL at the same concentration was added to the human artery wall cells together with HDL at 50 micrograms HDL-cholesterol/mL from a normal human (hHDL) or from the apoE null mice that received the dose of D-4F or Reverse D-4F shown on the X-axis. The resulting monocyte chemotactic activity was normalized to that of the LDL added without HDL. The resulting value is the HDL Inflammatory Index. The results shown are the Mean±S.D. for the data from three separate experiments.

[10] = Association with pre-beta HDL/HDL and clearance from the circulation after an oral dose
[11] = test system: PON1; conditions: added to the drinking water, 24 hrs
[12] = test system: Human aortic endothelial cells; experiment: Prevention of LDL-induced monocyte chemotactic activity in vitro, co-incubation; assay type: cell-based; conditions: co-incubation with control human LDL 200 μg protein/ml, overnight
Protocol: FIG. 1 illustrates a comparison of the effect of […] et al. (2002) Circulation, 105: 290-292) with the effect of an apoJ peptide made from D amino acids (D-J336, […], SEQ ID NO:999)) on the prevention of LDL-induced monocyte chemotactic activity in vitro in a co-incubation. […] D-J336 or D-4F was added to other wells in a concentration range as indicated plus control human LDL (200 μg protein/ml). Following overnight incubation, the supernatants were assayed for monocyte chemotactic activity.

[13] = test system: ApoE null mice; experiment: Ability of LDL from apoE null mice given oral peptides to induce monocyte chemotactic activity (LDL susceptibility to oxidation); assay type: in vivo; conditions: added to the drinking water, 24 hrs
Protocol: FIG. 5 illustrates the effect of oral apo A-1 peptide mimetic and apoJ peptide on LDL susceptibility to oxidation. […] After 24 hrs blood was collected from the mice shown in FIG. 4, plasma fractionated by FPLC and fractions containing LDL (designated as mLDL for murine LDL) were pooled and LDL susceptibility to oxidation as determined by induction of monocyte chemotactic activity was determined. For the assay controls the culture wells received no lipoproteins (no additions), mLDL alone (at 200 μg cholesterol/ml), or mLDL+standard normal human HDL (designated as Cont. h HDL, 350 μg HDL cholesterol).
Murine LDL, mLDL, from mice that received the D-4F (F mLDL) or those that received the apoJ peptide (J mLDL) were added to artery wall cell cultures.

[14] = test system: Human aortic endothelial cells; experiment: Prevention of LDL-induced monocyte chemotactic activity by pre-treatment (pre-incubation) of artery wall cells; assay type: cell-based; conditions: 6 hrs pre-incubation, then control human LDL 200 μg protein/ml
Protocol: FIG. 2 illustrates a comparison of the effect of D-4F with the effect of D-J336 on the prevention of LDL induced monocyte chemotactic activity in a pre-incubation. Human aortic endothelial cells were pre-incubated with D-J336 or D-4F at 4, 2, and 1 μg/ml for DJ336 or 100, 50, 25, and 12.5 μg/ml for D-4F for 6 hrs. The cultures were then washed and were incubated with medium alone (no addition), or with control human LDL (200 μg protein/ml), or with control human LDL+control human HDL (350 μg HDL protein/ml) as assay controls. The wells that were pre-treated with peptides received the control human LDL at 200 μg protein/ml. Following overnight incubation, the supernatants were assayed for monocyte chemotactic activity.

[15] = test system: ApoE null mice; experiment: HDL protective capacity against PAPC oxidation by HPODE, HDL from apo E null mice given oral peptides; assay type: in vivo; conditions: added to the drinking water, 24 hrs; murine HDL 100 μg cholesterol/ml
Protocol: After 24 hrs blood was collected, plasma fractionated by FPLC and fractions containing HDL (designated as mHDL) were pooled and HDL protective capacity against PAPC oxidation as determined by the induction of monocyte chemotactic activity was determined. For the assay controls the culture wells received no lipoproteins (no additions), the phospholipid PAPC at 20 μg/ml+HPODE, at 1.0 μg/ml, or PAPC+HPODE plus standard normal human HDL (at 350 μg HDL cholesterol/ml and designated as +Cont. h HDL).
For testing the murine HDL, PAPC+HPODE together with murine HDL (+F mHDL or +J mHDL) were added to artery wall cell cultures. […] The murine HDL was used at 100 μg cholesterol/ml.

[16] = test system: human LDL; experiment: Treating human LDL in vitro, removal of seeding molecules; assay type: biochemical
Source text: (§1) We discovered that normal HDL inhibits three steps in the formation of mildly oxidized LDL. […] These seeding molecules were required for cocultures of human artery wall cells to be able to oxidize LDL and for the LDL to induce the artery wall cells to produce monocyte chemotactic activity.

[17] = test system: mice; experiment: LDL oxidation resistance after injection of apo A-I into mice; assay type: in vivo
Source text: as §1

[18] = test system: human volunteers; experiment: LDL oxidation resistance after infusion of apo A-I into humans; assay type: in vivo
Source text: as §1

Compound: CC(C)c1c(C(=O)Nc2ccccc2)c(-c2ccccc2)c(-c2ccc(F)cc2)n1CC[C@@H](O)C[C@@H](O)CC(=O)O [atorvastatin, reference compound]
HDL function, statin alone ([1]; 0.05 mg/ml in drinking water for 24 hours): did not improve HDL function

Compound: Ac-D-W-L-K-A-F-Y-D-K-V-F-E-K-F-K-E-F-F-NH2 (Ac-DWLKAFYDKVFEKFKEFF-NH2) [Peptide 5F]
LDL oxidation and induction of monocyte chemotactic activity, PBS-injected versus peptide-injected mice [2]: more readily oxidized and more readily induced monocyte chemotactic activity

detectability in the circulation [4]: essentially non-detectable
Compound: Ac-DWFKAFYDKVAEKFKEAF-NH2 [Peptide D-4F]
activity of murine HDL against LDL-induced monocyte chemotactic activity [3]: as active as 350 μg/ml of normal human HDL
association with pre-beta HDL and HDL [4]: rapidly associates with pre-beta HDL and HDL
activity of mouse HDL in preventing control LDL from inducing monocyte chemotactic activity [5]: as active as 350 μg/ml of control human HDL
trabecular bone mineral density [6]: dramatically increased
HDL function, D-4F alone ([1]; 1 μg/ml in drinking water for 24 hours): did not significantly improve HDL function; also recorded: no effect on HDL function
HDL function, D-4F together with statin ([1]; D-4F 1 μg/ml together with 0.05 mg/ml of atorvastatin or pravastatin in drinking water): significant improvement in HDL function
anti-inflammatory activity of apoE null HDL compared with normal human HDL, D-4F together with statin ([1]; mouse HDL at 50 μg/ml of HDL-cholesterol, HPODE oxidizing PAPC in cocultures of human artery wall cells): as anti-inflammatory as 350 μg/ml of normal human HDL; also recorded: as effective as normal human HDL at 350 μg/ml of HDL-cholesterol
symptoms of diabetes (blood glucose, lipid hydroperoxides) [7]: effective in mitigating symptoms of diabetes
biological activity in producing HDL and pre-beta HDL that inhibit LDL-induced monocyte chemotaxis [8]: very biologically active
biological activity (HDL Inflammatory Index), D-4F versus Reverse D-4F [9]: not significantly different

Compound: Ac-FAEKFKEAVKDYFAKFWD-NH2 [Reverse D-4F]
biological activity (HDL Inflammatory Index), D-4F versus Reverse D-4F [9]: not significantly different

time remaining associated with HDL fractions ([10]; mouse, in vivo): at least 36 hours
Compound: Ac-L V G R Q L E E F L-NH2 [D-[113-122]apoJ]
association with pre-beta HDL and HDL ([10]; after an oral dose): slowly associates with pre-beta HDL and to a lesser extent with HDL

Compound: Ac-LLEQLNEQFNWVSRLANLTQGE-NH2 [D-J336]
potency in enhancing HDL protective capacity compared with D-4F ([3]; added to the drinking water, apo E null mice): as potent as D-4F
activity of murine HDL against LDL-induced monocyte chemotactic activity [3]: as active as 350 μg/ml of normal human HDL
activity of mouse HDL in preventing control LDL from inducing monocyte chemotactic activity [5]: as active as 350 μg/ml of control human HDL
potency in increasing paraoxonase activity compared with D-4F [11]: at least as potent as D-4F
in vitro concentration that prevents LDL-induced monocyte chemotactic activity, relative to the concentration required for D-4F [12]: 10 to 25 times less
potency in rendering LDL resistant to oxidation by human artery wall cells compared with D-4F [13]: slightly more potent than D-4F
potency in preventing LDL oxidation by artery wall cells in vitro relative to D-4F [14]: 10-25 times more potent
potency in causing HDL to inhibit oxidation of PAPC by HPODE compared with D-4F [15]: as potent as D-4F

Compound: apo A-I: the major protein of HDL, apolipoprotein A-I
effect on seeding molecules (HPODE, HPETE) of human LDL [16]: removed seeding molecules from the LDL
oxidation of LDL isolated after injection, by human artery wall cells [17]: resistant to oxidation by human artery wall cells
oxidation of LDL isolated after infusion, by human artery wall cells [18]: resistant to oxidation by human artery wall cells

From patent US20100240598A1, “PEPTIDES AND PEPTIDE MIMETICS TO INHIBIT THE ONSET AND/OR PROGRESSION OF FIBROTIC AND/OR PRE-FIBROTIC PATHOLOGIES” (THE REGENTS OF THE UNIVERSITY OF CALIFORNIA, priority 2009, published 2010)
